{
  "source": "patent US20120034288A1",
  "about": "“COMPOSITIONS AND METHODS FOR ENHANCED ATTRACTION OF NOCTUID MOTHS” (priority 2010, published 2012)",
  "key": {"Heliothis zea [1]": {"test_system": "Heliothis zea", "assay": "Heliothis zea Test 2: field trap capture with added enhancer", "assay_type": "in vivo", "settings": "Arkansas, enhancer added to pheromone lure", "text": "The percent increase in Heliothis zea captures with the addition of the soybean volatile trans-2,cis-6-nonadienal was 44%, 25%, and 54% respectively for Mississippi and Arkansas in test 1 and in Arkansas in test 2."}, "Heliothis zea [2]": {"test_system": "Heliothis zea", "assay": "Heliothis zea Test 1: field trap capture, Hercon pheromone lure with/without enhancer", "assay_type": "in vivo", "settings": "for percent increase in Heliothis zea captures: test 1, enhancer added to pheromone lure", "procedure": "12 traps were set in Yazoo City and 10 in Monroe County, Miss. From mid June through mid September trans-2, cis-6-nonadienal, a compound reported from the volatiles of corn and soybean plants was tested. Both treatments used a commercial Heliothis zea pheromone dispenser produced by Hercon. The standard was this lure only, while the enhanced traps also contained a dispenser produced in-house that contained the enhancer."}},
  "data": [
    {"smiles": "CC/C=C\\CC/C=C/C=O", "note": "[trans-2,cis-6-nonadienal, trans-2, cis-6-nonadienal]", "values": [
      {"measurement": "percent increase in Heliothis zea captures", "setting": "Heliothis zea [1]", "result": 54, "unit": "%"},
      {"measurement": "percent increase in Heliothis zea captures", "setting": "Heliothis zea [2]; Arkansas", "result": 25, "unit": "%"},
      {"measurement": "percent increase in Heliothis zea captures", "setting": "Heliothis zea [2]; Mississippi", "result": 44, "unit": "%"},
      {"measurement": "function as an enhancer for attracting H. zea", "setting": "Heliothis zea [2]; statement in words", "result": "functioned as an enhancer"}
    ]}
  ]
}
